This assay addresses USP1 (construct USP1 (I-785, GG670, 671AA)/UAF1 (I-677)-Flag) (Homo sapiens (Human), UniProt O94782, G670A/G671A). In words: Ubiquitin-Rhodamine 110 assay for USP1 activity. As to conditions: USP1/UAF1 25 pM, Ub-Rh110 25 nM, 30 min preincubation. Type of assay: biochemical. In a few lines:
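Ub-Rh110 (25 nM, ≪Km) cleavage read at ex 485/em 535 in Tris pH 8.0, CaCl2, GSH, Prionex, Triton X-100. The screen used 10 µM compound, 100 pM USP1/UAF1 and 45 min at RT.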
Chain of USP1 (construct USP1 (I-785, GG670, 671AA)/UAF1 (I-677)-Flag) (O94782 whole entry G670A/G671A): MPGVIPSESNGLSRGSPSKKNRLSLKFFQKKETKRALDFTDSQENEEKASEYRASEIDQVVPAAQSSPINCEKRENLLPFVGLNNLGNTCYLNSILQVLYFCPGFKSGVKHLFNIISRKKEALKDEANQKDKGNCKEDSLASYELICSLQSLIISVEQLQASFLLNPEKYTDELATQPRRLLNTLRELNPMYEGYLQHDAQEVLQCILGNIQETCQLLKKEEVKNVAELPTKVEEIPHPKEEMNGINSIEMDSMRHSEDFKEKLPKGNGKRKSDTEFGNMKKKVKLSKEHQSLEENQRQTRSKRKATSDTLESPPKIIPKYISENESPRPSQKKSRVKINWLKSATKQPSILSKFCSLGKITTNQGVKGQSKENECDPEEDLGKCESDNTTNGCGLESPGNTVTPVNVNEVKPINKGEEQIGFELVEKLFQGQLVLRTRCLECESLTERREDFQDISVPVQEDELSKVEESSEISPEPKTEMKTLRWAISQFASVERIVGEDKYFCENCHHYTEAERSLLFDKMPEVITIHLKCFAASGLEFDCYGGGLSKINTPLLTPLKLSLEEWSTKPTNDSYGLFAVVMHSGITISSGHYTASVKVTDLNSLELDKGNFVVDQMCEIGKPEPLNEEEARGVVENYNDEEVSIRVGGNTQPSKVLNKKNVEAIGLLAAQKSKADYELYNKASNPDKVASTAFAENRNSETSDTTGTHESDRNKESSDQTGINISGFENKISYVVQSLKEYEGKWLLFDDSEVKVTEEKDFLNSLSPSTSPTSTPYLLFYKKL
Chain of USP1 (construct USP1 (I-785, GG670, 671AA)/UAF1 (I-677)-Flag) (Q8TAF3 whole entry partner): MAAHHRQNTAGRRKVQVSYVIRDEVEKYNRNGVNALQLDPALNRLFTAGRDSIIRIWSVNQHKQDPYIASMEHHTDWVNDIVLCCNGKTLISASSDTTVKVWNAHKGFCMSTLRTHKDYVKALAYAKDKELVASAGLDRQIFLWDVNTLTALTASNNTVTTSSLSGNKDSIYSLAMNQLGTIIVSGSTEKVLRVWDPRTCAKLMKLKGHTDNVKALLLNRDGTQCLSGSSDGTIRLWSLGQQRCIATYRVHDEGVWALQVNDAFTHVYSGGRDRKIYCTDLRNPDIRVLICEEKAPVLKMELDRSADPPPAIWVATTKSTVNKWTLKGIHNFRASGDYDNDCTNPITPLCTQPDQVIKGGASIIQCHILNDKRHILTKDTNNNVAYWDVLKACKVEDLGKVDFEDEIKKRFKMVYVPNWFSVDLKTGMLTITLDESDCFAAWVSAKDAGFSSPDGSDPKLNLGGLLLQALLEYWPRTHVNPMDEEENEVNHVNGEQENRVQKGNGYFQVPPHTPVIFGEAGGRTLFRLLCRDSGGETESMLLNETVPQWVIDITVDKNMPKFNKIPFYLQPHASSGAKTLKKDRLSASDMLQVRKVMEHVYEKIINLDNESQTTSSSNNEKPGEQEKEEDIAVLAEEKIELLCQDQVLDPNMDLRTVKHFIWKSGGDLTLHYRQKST
The term IC50 denotes the concentration that gives 50% inhibition. Lower therefore signals inhibition by little substance. As to `CC(C)c1ccccc1-c1ncc2[nH]c(=O)n(Cc3ccc(-n4nc(C#N)cc4C#N)cc3)c2n1` [Compound I-199, 1-(4-((2-(2-isopropylphenyl)-8-oxo-7,8-dihydro-9H-purin-9-yl)methyl)phenyl)-1H-pyrazole-3,5-dicarbonitrile], the 50% inhibitory concentration (IC50) is less than 0.05 µM.
As for `CC(C)c1ccccc1-c1ncc2[nH]c(=O)n([C@@H](C)c3ccc(F)cc3)c2n1` [Compound I-179, (S)-9-(1-(4-fluorophenyl)ethyl)-2-(2-isopropylphenyl)-7,9-dihydro-8H-purin-8-one], the figure is 0.05 to 0.2 µM; as for `CC(C)c1ccccc1-c1ncc2[nH]c(=O)n(Cc3ccc(C(=O)N4CCCC45COC5)cc3)c2n1` [Compound I-411, 9-(4-(2-oxa-5-azaspiro[3.4]octane-5-carbonyl)benzyl)-2-(2-isopropylphenyl)-7,9-dihydro-8H-purin-8-one], less than 0.05 µM.
With `Cc1nc(-c2ccc(Cn3c(=O)[nH]c4cnc(-c5ccccc5C(C)C)nc43)cc2)nn1C` [Compound I-294, 9-(4-(1,5-dimethyl-1H-1,2,4-triazol-3-yl)benzyl)-2-(2-isopropylphenyl)-7,9-dihydro-8H-purin-8-one] the figure was less than 0.05 µM; with `CC(C)c1ccccc1-c1ncc2c(n1)n(Cc1ccc(N(C)S(=O)(=O)c3ccn(C)n3)cc1)c(=O)n2C` [Compound I-456, N-(4-((2-(2-isopropylphenyl)-7-methyl-8-oxo-7,8-dihydro-9H-purin-9-yl)methyl)phenyl)-N,1-dimethyl-1H-pyrazole-3-sulfonamide], 0.05 to 0.2 µM; with `Cn1cc(C(F)(F)F)nc1-c1ccc(Cn2c(=O)[nH]c3cnc(-c4ccccc4OC(F)(F)F)nc32)cc1` [Compound I-37, 9-(4-(1-methyl-4-(trifluoromethyl)-1H-imidazol-2-yl)benzyl)-2-(2-(trifluoromethoxy)phenyl)-7,9-dihydro-8H-purin-8-one], less than 0.05 µM.
For `CC(C)c1c(F)cccc1-c1ncc2[nH]c(=O)n(Cc3ccc(-n4cccn4)cc3)c2n1` [Compound I-170, 9-(4-(1H-pyrazol-1-yl)benzyl)-2-(3-fluoro-2-isopropylphenyl)-7,9-dihydro-8H-purin-8-one], the concentration for half-maximal inhibition (IC50) was less than 0.05 µM.
As for `COCCN(C)c1ccc(Cn2c(=O)n(C)c3cnc(-c4ccccc4C(C)C)nc32)cc1` [Compound I-491, 2-(2-isopropylphenyl)-9-(4-((2-methoxyethyl)(methyl)amino)benzyl)-7-methyl-7,9-dihydro-8H-purin-8-one], the figure is 0.2 to 2 µM; as for `CC(=O)Nc1cn(C)c(-c2ccc(Cn3c(=O)[nH]c4cnc(-c5ccccc5C(C)C)nc43)cc2)n1` [Compound I-538, N-(2-(4-((2-(2-isopropylphenyl)-8-oxo-7,8-dihydro-9H-purin-9-yl)methyl)phenyl)-1-methyl-1H-imidazol-4-yl)acetamide], 0.05 to 0.2 µM; as for `Cc1cn2ccnc2c(-c2ccc(Cn3c(=O)[nH]c4cnc(-c5ccccc5C(C)C)nc43)cc2)n1` [Compound I-306, 2-(2-isopropylphenyl)-9-(4-(6-methylimidazo[1,2-a]pyrazin-8-yl)benzyl)-7,9-dihydro-8H-purin-8-one], less than 0.05 µM.
With `CC(C)c1ccccc1-c1ncc2c(n1)n(Cc1ccc(-c3cnnn3C)cc1)c(=O)n2C` [Compound I-285, 2-(2-isopropylphenyl)-7-methyl-9-(4-(1-methyl-1H-1,2,3-triazol-5-yl)benzyl)-7,9-dihydro-8H-purin-8-one] the figure was 0.2 to 2 µM.
As for `Cc1cc(C)n(-c2cnc(Cn3c(=O)[nH]c4cnc(-c5ccccc5C(C)C)nc43)cn2)n1` [Compound I-510, 9-((5-(3,5-Dimethyl-1H-pyrazol-1-yl)pyrazin-2-yl)methyl)-2-(2-isopropylphenyl)-7,9-dihydro-8H-purin-8-one], the IC50 fell in the range of 0.05 to 0.2 µM.
Compound `CC(C)c1ccccc1-c1ncc2[nH]c(=O)n(Cc3ccc(-c4nc(C(F)(F)F)cn4C4CNC4)cc3)c2n1` [Compound I-430, 9-(4-(1-(azetidin-3-yl)-4-(trifluoromethyl)-1H-imidazol-2-yl)benzyl)-2-(2-isopropylphenyl)-7,9-dihydro-8H-purin-8-one] yielded a half-maximal inhibitory concentration (IC50) of less than 0.05 µM.
As for `CCC(=O)c1ccccc1-c1ncc2[nH]c(=O)n(Cc3ccc(-c4nc(C(F)(F)F)cn4C)cc3)c2n1` [Compound I-527, 9-(4-(1-methyl-4-(trifluoromethyl)-1H-imidazol-2-yl)benzyl)-2-(2-propionylphenyl)-7,9-dihydro-8H-purin-8-one], the figure is 0.2 to 2 µM.
With `CC(C)c1ncccc1-c1ncc2c(n1)n(Cc1ccc(-c3nc(C(F)(F)F)cn3C3COC3)cc1)c(=O)n2C` [Compound I-124, 2-(2-isopropylpyridin-3-yl)-7-methyl-9-(4-(1-(oxetan-3-yl)-4-(trifluoromethyl)-1H-imidazol-2-yl)benzyl)-7,9-dihydro-8H-purin-8-one] the figure was 0.05 to 0.2 µM; with `Cc1cn(C)c(-c2ccc(Cn3c(=O)[nH]c4cnc(-c5ccccc5C(C)C)nc43)cn2)n1` [Compound I-203, 9-((6-(1,4-dimethyl-1H-imidazol-2-yl)pyridin-3-yl)methyl)-2-(2-isopropylphenyl)-7,9-dihydro-8H-purin-8-one], less than 0.05 µM.
With `CC(C)c1ccccc1-c1ncc2c(n1)n(Cc1ccc(-n3ccc(C4CCNCC4)n3)cc1)c(=O)n2C` [Compound I-433, 2-(2-isopropylphenyl)-7-methyl-9-(4-(3-(piperidin-4-yl)-1H-pyrazol-1-yl)benzyl)-7,9-dihydro-8H-purin-8-one] the figure was 0.2 to 2 µM; with `CC(C)c1c(F)cccc1-c1ncc2c(n1)n(Cc1ccc(-n3cccn3)cc1)c(=O)n2C` [Compound I-8, 9-(4-(1H-pyrazol-1-yl)benzyl)-2-(3-fluoro-2-isopropylphenyl)-7-methyl-7,9-dihydro-8H-purin-8-one], less than 0.05 µM; with `CC(C)c1c(F)cccc1-c1ncc2[nH]c(=O)n(Cc3ccc(-n4cc5c(n4)CNC5)cc3)c2n1` [Compound I-104, 9-(4-(5,6-dihydropyrrolo[3,4-c]pyrazol-2(4H)-yl)benzyl)-2-(3-fluoro-2-isopropylphenyl)-7,9-dihydro-8H-purin-8-one], 0.2 to 2 µM.
Compound `CC(C)c1ccccc1-c1ncc2[nH]c(=O)n(Cc3ccc(C#N)cc3)c2n1` [Compound I-151, 4-((2-(2-isopropylphenyl)-8-oxo-7,8-dihydro-9H-purin-9-yl)methyl)benzonitrile] gave a concentration for half-maximal inhibition (IC50) of 0.2 to 2 µM.
As for `Cc1cc(C)n([C@H]2CC[C@@H](Cn3c(=O)[nH]c4cnc(-c5ccccc5C(C)C)nc43)CC2)n1` [Compound I-212, 9-(((1s,4s)-4-(3,5-dimethyl-1H-pyrazol-1-yl)cyclohexyl)methyl)-2-(2-isopropylphenyl)-7,9-dihydro-8H-purin-8-one], the figure is less than 0.05 µM; as for `Cc1nnc(-c2ccc(Cn3c(=O)[nH]c4cnc(-c5cccc(F)c5C(C)C)nc43)cc2)o1` [Compound I-189, 2-(3-fluoro-2-isopropylphenyl)-9-(4-(5-methyl-1,3,4-oxadiazol-2-yl)benzyl)-7,9-dihydro-8H-purin-8-one], less than 0.05 µM.
As for `Cc1cn(C)c(-c2ccc(Cn3c(=O)[nH]c4cnc(-c5cccc(F)c5C(C)C)nc43)cc2)n1` [Compound I-307, 9-(4-(1,4-dimethyl-1H-imidazol-2-yl)benzyl)-2-(3-fluoro-2-isopropylphenyl)-7,9-dihydro-8H-purin-8-one], the figure is less than 0.05 µM; as for `CC(C)c1ccccc1-c1ncc2[nH]c(=O)n(Cc3ccc(-c4ncsc4CO)cc3)c2n1` [Compound I-302, 9-(4-(5-(hydroxymethyl)thiazol-4-yl)benzyl)-2-(2-isopropylphenyl)-7,9-dihydro-8H-purin-8-one], less than 0.05 µM; as for `CC(C)c1ccccc1-c1ncc2[nH]c(=O)n(Cc3ccc(C(=O)N4CCN(C)CC4)cc3)c2n1` [Compound I-410, 2-(2-isopropylphenyl)-9-(4-(4-methylpiperazine-1-carbonyl)benzyl)-7,9-dihydro-8H-purin-8-one], more than 2 µM.
As for `CNC(=O)c1ccc(Cn2c(=O)[nH]c3cnc(-c4ccccc4C(C)C)nc32)cc1` [Compound I-351, 4-((2-(2-isopropylphenyl)-8-oxo-7,8-dihydro-9H-purin-9-yl)methyl)-N-methylbenzamide], the figure is 0.05 to 0.2 µM; as for `CC(C)c1ccccc1-c1ncc2[nH]c(=O)n(CC3CCN(c4cccnc4)CC3)c2n1` [Compound I-143, 2-(2-isopropylphenyl)-9-((1-(pyridin-3-yl)piperidin-4-yl)methyl)-7,9-dihydro-8H-purin-8-one], 0.2 to 2 µM.
The compound `CC(C)c1ccccc1-c1ncc2[nH]c(=O)n([C@@H](C)c3ccc(-c4nccn4C)cc3)c2n1` [Compound I-310, (S)-2-(2-isopropylphenyl)-9-(1-(4-(1-methyl-1H-imidazol-2-yl)phenyl)ethyl)-7,9-dihydro-8H-purin-8-one] returned an IC50 of less than 0.05 µM.
With `Cc1scnc1-c1ccc(Cn2c(=O)[nH]c3cnc(-c4ccccc4C(C)C)nc32)cc1` [Compound I-300, 2-(2-isopropylphenyl)-9-(4-(5-methylthiazol-4-yl)benzyl)-7,9-dihydro-8H-purin-8-one] the figure was less than 0.05 µM; with `[2H]C([2H])([2H])n1cc(C(F)(F)F)nc1-c1ccc(Cn2c(=O)n(C([2H])([2H])[2H])c3cnc(-c4cccnc4C(C)C)nc32)cc1` [Compound I-130, 2-(2-isopropylpyridin-3-yl)-7-(methyl-d3)-9-(4-(1-(methyl-d3)-4-(trifluoromethyl)-1H-imidazol-2-yl)benzyl)-7,9-dihydro-8H-purin-8-one], less than 0.05 µM; with `CC(C)c1ncccc1-c1ncc2[nH]c(=O)n(Cc3ccc(-c4ccn(C)n4)cc3)c2n1` [Compound I-46, 2-(2-isopropylpyridin-3-yl)-9-(4-(1-methyl-1H-pyrazol-3-yl)benzyl)-7,9-dihydro-8H-purin-8-one], 0.2 to 2 µM.

The values above are taken from US10189841B2, “Purinones as ubiquitin-specific protease 1 inhibitors” (Forma Therapeutics, Inc., priority 2015, dated 2019).
